This is an account of results in ChEMBL document CHEMBL1136837, “Unified QSAR approach to antimicrobials. 4. Multi-target QSAR modeling and comparative multi-distance study of the giant components of antiviral drug-drug complex networks” (Bioorg Med Chem, 2009).

The test system of this experiment is Hepatitis C virus. The experiment is described as follows: Antiviral activity against Hepatitis C virus. It counts as functional, organism-based, Hepacivirus hominis. To be noted: Hepatitis C virus.

The term IC50 denotes the concentration needed to halve the response being measured.

Take `CCc1ccc(C(=O)CC(=O)C(=O)O)cc1`: the IC50 was 47 µM. On to `Cc1ccc(C(=O)CC(=O)C(=O)O)cc1`, for which the IC50 is 50 µM.

In turn, `N#CCCCOc1ccccc1C(=O)CC(=O)C(=O)O` came in with an IC50 of 0.35 µM. With `O=C(O)C(=O)CC(=O)c1cccc(NS(=O)(=O)c2ccccc2)c1` the figure was 16 µM; with `CCCCOc1ccccc1C(=O)CC(=O)C(=O)O`, 10 µM. With `COC(=O)C(=O)CC(=O)c1ccccc1` the figure was 50 µM. With `CC(C)(C)c1ccc(C(=O)CC(=O)C(=O)O)cc1` the figure was 50 µM; with `O=C(CC(O)C(=O)O)c1ccccc1` (centres undefined), 50 µM; with `CC(C)(C)C(=O)CC(=O)C(=O)O`, 50 µM. `O=C(O)C(=O)CC(=O)c1ccccc1` came in with an IC50 of 5.7 µM.

`CCCC1(CC(=O)O)OCCc2c1[nH]c1c(C)ccc(C#N)c21` (centres undefined): the IC50 stood at 0.57 µM.

`CCCC1(CC(=O)OCC)OCCc2c1[nH]c1c(C)ccc(C#N)c21` (centres undefined): the IC50 is 30 µM. Molecule `CCc1ccc(Cl)c2[nH]c3c(c12)CCOC3(CC)CC(=O)O` (centres undefined) displayed an IC50 of 30 µM. With `O=C(O)[C@H](Cc1ccccc1)N(Cc1cccc(Br)c1)C(=O)c1ccc(Cl)cc1Cl` the figure was 3.5 µM; with `O=C(O)[C@H](Cc1ccccc1)N(Cc1cccc([N+](=O)[O-])c1)C(=O)c1ccc(Cl)cc1Cl`, 0.7 µM. On to `O=C(O)[C@H](Cc1ccccc1)N(Cc1cccc(C(F)(F)F)c1)C(=O)c1ccc(Cl)cc1Cl`, for which the IC50 stood at 1.7 µM. Next, `Cc1cccc(CN(C(=O)c2ccc(Cl)cc2Cl)[C@@H](Cc2ccccc2)C(=O)O)c1`: 1.8 µM.

Molecule `O=C(O)[C@H](Cc1ccccc1)N(Cc1cccc(F)c1)C(=O)c1ccc(Cl)cc1Cl` yielded an IC50 of 3.2 µM. As for `O=C(O)[C@H](Cc1ccccc1)N(Cc1ccc(-c2cc3ccccc3o2)s1)C(=O)c1ccc(Cl)cc1Cl`, the midpoint of inhibition, the IC50, lay at 8.6 µM. With `N#Cc1ccccc1CN(C(=O)c1ccc(Cl)cc1Cl)[C@@H](Cc1ccccc1)C(=O)O` the figure was 6 µM. Regarding `N#Cc1ccc(CN(C(=O)c2ccc(Cl)cc2Cl)[C@@H](Cc2ccccc2)C(=O)O)cc1`, the IC50 came out at 8 µM. `O=C(O)[C@H](Cc1ccccc1)N(Cc1cccnc1)C(=O)c1ccc(Cl)cc1Cl` came in with an IC50 of 11 µM. The molecule `COc1ccc2c(O[C@@H]3C[C@H]4C(=O)N[C@]5(C(=O)O)C[C@H]5/C=C\CCCCC[C@H](NC(=O)OC5CCCC5)C(=O)N4C3)cc(-n3cccc3)nc2c1` returned an IC50 of 0.0036 µM.

In the case of `COc1ccc2c(O[C@@H]3C[C@H]4C(=O)N[C@]5(C(=O)O)C[C@H]5/C=C\CCCCC[C@H](NC(=O)OC(C)(C)C)C(=O)N4C3)cc(-n3ccnc3)nc2c1`, the IC50 was 0.0047 µM. Consider `CNc1nc(-c2cc(O[C@@H]3C[C@H]4C(=O)N[C@]5(C(=O)O)C[C@H]5/C=C\CCCCC[C@H](NC(=O)OC5CCCC5)C(=O)N4C3)c3ccc(OC)cc3n2)cs1`, for which half-maximal inhibition (IC50) required 0.0025 µM. Next, `COc1ccc2c(O[C@@H]3C[C@H]4C(=O)N[C@]5(C(=O)O)C[C@H]5/C=C\CCCCC[C@H](NC(=O)OC(C)(C)C)C(=O)N4C3)cc(-n3cccc3)nc2c1`: 0.0051 µM; `COc1ccc2c(O[C@@H]3C[C@H]4C(=O)N[C@]5(C(=O)O)C[C@H]5/C=C\CCCCC[C@H](NC(=O)OC5CCCC5)C(=O)N4C3)cc(-c3csc(N)n3)nc2c1`: 0.0035 µM; `CCNc1nc(-c2cc(O[C@@H]3C[C@H]4C(=O)N[C@]5(C(=O)O)C[C@H]5/C=C\CCCCC[C@H](NC(=O)OC5CCCC5)C(=O)N4C3)c3ccc(OC)cc3n2)cs1`: 0.0029 µM. As to `O=C(O)C(=O)CC(=O)c1ccccc1OCc1ccccc1`, 44 µM corresponded to half-maximal inhibition (IC50). Next, `C[C@@]1(O)[C@H](O)[C@@H](CO)O[C@H]1n1ncc2c(N)ncnc21`: 100 µM; `COc1ccc2c(O[C@@H]3C[C@H]4C(=O)N[C@]5(C(=O)O)C[C@H]5/C=C\CCCCC[C@H](NC(=O)OC5CCCC5)C(=O)N4C3)cc(-c3csc(NC(C)=O)n3)nc2c1`: 0.0025 µM; `COc1ccc2c(O[C@@H]3C[C@H]4C(=O)N[C@]5(C(=O)O)C[C@H]5/C=C\CCCCC[C@H](NC(=O)N[C@H](C)C(C)(C)C)C(=O)N4C3)cc(-c3csc(NC(C)=O)n3)nc2c1`: 0.0014 µM. Consider `COc1ccc2c(O[C@@H]3C[C@H]4C(=O)N[C@]5(C(=O)O)C[C@H]5/C=C\CCCCC[C@H](NC(=O)OC(C)(C)C)C(=O)N4C3)cc(-n3ccc(C)n3)nc2c1`, for which the half-inhibitory concentration (IC50) was 0.003 µM. `COc1ccc2c(O[C@@H]3C[C@H]4C(=O)N[C@]5(C(=O)O)C[C@H]5/C=C\CCCCC[C@H](NC(=O)OC5CCC5)C(=O)N4C3)cc(-c3csc(NC(C)=O)n3)nc2c1` yielded an IC50 of 0.0026 µM. Next, `COc1ccc2c(O[C@@H]3C[C@H]4C(=O)N[C@]5(C(=O)O)C[C@H]5/C=C\CCCCC[C@H](NC(=O)OC(C)(C)C)C(=O)N4C3)cc(-c3nnc(C)o3)nc2c1`: 0.012 µM; `COc1ccc2c(O[C@@H]3C[C@H]4C(=O)N[C@]5(C(=O)O)C[C@H]5/C=C\CCCCC[C@H](NC(=O)OC5CCCC5)C(=O)N4C3)cc(-n3cccn3)nc2c1`: 0.0022 µM.

Take `O=C(O)[C@H](Cc1ccccc1)N(Cc1cccc(Cl)c1)C(=O)c1ccc(Cl)cc1Cl`: the IC50 worked out at 1.4 µM.

With `COc1ccc2c(O[C@@H]3C[C@H]4C(=O)N[C@]5(C(=O)O)C[C@H]5/C=C\CCCCC[C@H](NC(=O)OC5CCCC5)C(=O)N4C3)cc(-n3ccc(C)n3)nc2c1`, the IC50 came out at 0.0022 µM. With `N#Cc1c(Cl)cccc1COc1cccc(C(=O)/C=C(\O)C(=O)O)c1`, the IC50 is 0.11 µM.

On to `CC(C)COC(=O)N[C@@H](CCC(=O)O)C(=O)N[C@@H](CC(C)C)C(=O)N[C@@H](CS)C(=O)NCCc1ccc(C(=O)O)cc1`, for which the IC50 is 2 µM. `COC(=O)c1ccccc1CCNC(=O)[C@H](CS)NC(=O)[C@H](CC(C)C)NC(=O)[C@H](CCC(=O)O)NC(=O)OCC(C)C`: the IC50 came out at 54 µM. Molecule `COC(=O)c1cccc(CCNC(=O)[C@H](CS)NC(=O)[C@H](CC(C)C)NC(=O)[C@H](CCC(=O)O)NC(=O)OCC(C)C)c1` registered an IC50 of 25 µM. As to `CC(=O)CC(=O)C(=O)O`, it took 50 µM to reach half-maximal inhibition (IC50). Regarding `N#Cc1ccc(Br)cc1COc1cccc(C(=O)/C=C(\O)C(=O)O)c1`, it took 0.1 µM to reach half-maximal inhibition (IC50). With `CCC[C@@]1(CC(=O)O)OCCc2c1[nH]c1c(C)ccc(C#N)c21` the figure was 2.4 µM. With `N#Cc1c(Cl)cc(Cl)cc1COc1cccc(C(=O)/C=C(\O)C(=O)O)c1` the figure was 0.045 µM. The molecule `Cc1cn([C@@H]2O[C@H](CO)[C@@H](O)[C@@]2(C)O)c2ncnc(N)c12` registered an IC50 of 34 µM. Next, `C[C@@]1(O)[C@H](O)[C@@H](CO)O[C@H]1n1ccc2c(N)nc(F)nc21`: 100 µM. Next, `O=C(CC(=O)C(=O)O)Cc1ccncc1`: 50 µM. Consider `O=C(CC(=O)C(=O)O)Cc1ccco1`, for which inhibition was half-maximal at 50 µM (IC50). With `CCC[C@@]1(CC(=O)O)OCCc2c1[nH]c1c(Cl)ccc(CC)c21`, the midpoint of inhibition, the IC50, lay at 15 µM. With `CCC[C@@]1(CC(=O)O)OCCc2c1[nH]c1c(C)cc(F)c(C#N)c21` the figure was 0.63 µM; with `N#Cc1ccccc1COc1cccc(C(=O)/C=C(\O)C(=O)O)c1`, 0.23 µM. With `CC(C)COC(=O)N[C@@H](CCC(=O)O)C(=O)N[C@@H](CC(C)C)C(=O)N[C@@H](CS)C(=O)NCCc1ccccc1` the figure was 19 µM.
